Reference: patent US20220402948A1, “EGFR INHIBITOR, COMPOSITION AND PREPARATION METHOD THEREFOR” (BETTA PHARMACEUTICALS CO., LTD., priority 2019, published 2022)

Tests used:
[1] = target: Ba/F3-EGFR wild-type cell line (Homo sapiens, UniProt P00533); test: Ba/F3-EGFR wild-type cell proliferation assay (CellTiter Glo, 72 hours); type: cell-based; details: Table 2, read-out: EGFR WT IC50
Description: Cell line: Ba/F3 cells with EGFR Δ19del/T790M/C797S mutation gene stably overexpressed named Ba/F3-Δ119del/T90M/C797S, and A431 and Ba/F3-EGFR wild-type cell line.
a) Centrifuge the growth cells in logarithmic phase at 1000 rpm for 5 minutes, resuspend the cells in culture medium, and then count the cells;
b) Inoculate the cells into a 96-well cell culture plate with a density of 2000 cells/well;
b) Incubate cells in an incubator for another 72 hours.
a) Take out the 96-well cell culture plate and add 50 μl CTG reagent (CellTiter Glo kit, promega, Cat #G7573);
b) Shake the plate for 2 minutes and let cool at room temperature for 10 minutes;
c) Read luminous signal value with PerkinElmer reader,
Analysis of Experimental Data
The data were analyzed by GraphPad Prism 6.0 software to obtain the fitting curve of compound activity.
Y=Min+(Max−Min)/(1+10^((Log IC50−X)*slope));
X: Logarithm of compound concentration; Y: luminous signal.

[2] = target: Ba/F3 cells with EGFR Δ19del/T790M/C797S mutation gene stably overexpressed (Homo sapiens, UniProt P00533, T790M/C797S, cells depend on it, form not given); test: Ba/F3-Δ19del/T790M/C797S cell proliferation assay (CellTiter Glo, 72 hours); type: cell-based; details: Table 2, read-out: EGFR Δ19del/T790M/C797S IC50
Summary of the method: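 Ba/F3 cells stably overexpressing wild-type EGFR or EGFR Δ19del/T790M/C797S were seeded at 2000 cells/well and incubated 72 h with compound. Viability was read by CellTiter-Glo luminescence, and IC50 came from a four-parameter logistic fit of signal against log concentration.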

A431 = A431 cell proliferation assay (CellTiter Glo, 72 hours); type: cell-based; details: Homo sapiens, A-431, 72 h, cell proliferation, A431, 72 hours, Table 2; read-out: A431 IC50
Summary of the method: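 Luminescence (CellTiter-Glo) after 72 h treatment gives viability, fitted by nonlinear regression to yield IC50. Cells seeded at 2000 per well; nine 3-fold concentrations from 1000 nM, DMSO final 0.1% (0.5% for certain compounds).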

EGFRΔ19del/T790M/C797S = EGFRΔ19del/T790M/C797S (Homo sapiens, UniProt P00533, T790M/C797S, form not given); test: EGFR Δ19del/T790M/C797S kinase test (mobility variation analysis, Caliper EZ Reader); type: biochemical; details: kinase enzymatic activity, Table 1
Summary of the method: (§1)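 Read-out is substrate-to-product conversion by mobility shift, stopped after incubation at room temperature with ATP and substrate, following a 10-minute room-temperature compound–enzyme pre-incubation. IC50 obtained by four-parameter variable-slope fitting of inhibition normalized between enzyme-free and uninhibited controls.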

IGF1R = IGF1R (Homo sapiens, UniProt P08069); test: IGF1R kinase test (mobility variation analysis, Caliper EZ Reader); type: biochemical; details: kinase enzymatic activity, Table 1; read-out: EGFR IGF1R IC50
Summary of the method: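 Mobility-shift readout of substrate conversion, normalised to positive (no compound) and negative (no kinase) controls, gives % inhibition and IC50 by four-parameter fit. Compounds, 3-fold dilutions over 10 concentrations starting at 3000 nM, preincubated 10 min with kinase before ATP/substrate start; room temperature.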

EGFR WT = EGFR WT (Homo sapiens, UniProt P00533); test: EGFR WT kinase test (mobility variation analysis, Caliper EZ Reader); type: biochemical; details: kinase enzymatic activity, Table 1
Summary of the method: as §1

Chain of IGF1R (P08069 31-1367, species assumed): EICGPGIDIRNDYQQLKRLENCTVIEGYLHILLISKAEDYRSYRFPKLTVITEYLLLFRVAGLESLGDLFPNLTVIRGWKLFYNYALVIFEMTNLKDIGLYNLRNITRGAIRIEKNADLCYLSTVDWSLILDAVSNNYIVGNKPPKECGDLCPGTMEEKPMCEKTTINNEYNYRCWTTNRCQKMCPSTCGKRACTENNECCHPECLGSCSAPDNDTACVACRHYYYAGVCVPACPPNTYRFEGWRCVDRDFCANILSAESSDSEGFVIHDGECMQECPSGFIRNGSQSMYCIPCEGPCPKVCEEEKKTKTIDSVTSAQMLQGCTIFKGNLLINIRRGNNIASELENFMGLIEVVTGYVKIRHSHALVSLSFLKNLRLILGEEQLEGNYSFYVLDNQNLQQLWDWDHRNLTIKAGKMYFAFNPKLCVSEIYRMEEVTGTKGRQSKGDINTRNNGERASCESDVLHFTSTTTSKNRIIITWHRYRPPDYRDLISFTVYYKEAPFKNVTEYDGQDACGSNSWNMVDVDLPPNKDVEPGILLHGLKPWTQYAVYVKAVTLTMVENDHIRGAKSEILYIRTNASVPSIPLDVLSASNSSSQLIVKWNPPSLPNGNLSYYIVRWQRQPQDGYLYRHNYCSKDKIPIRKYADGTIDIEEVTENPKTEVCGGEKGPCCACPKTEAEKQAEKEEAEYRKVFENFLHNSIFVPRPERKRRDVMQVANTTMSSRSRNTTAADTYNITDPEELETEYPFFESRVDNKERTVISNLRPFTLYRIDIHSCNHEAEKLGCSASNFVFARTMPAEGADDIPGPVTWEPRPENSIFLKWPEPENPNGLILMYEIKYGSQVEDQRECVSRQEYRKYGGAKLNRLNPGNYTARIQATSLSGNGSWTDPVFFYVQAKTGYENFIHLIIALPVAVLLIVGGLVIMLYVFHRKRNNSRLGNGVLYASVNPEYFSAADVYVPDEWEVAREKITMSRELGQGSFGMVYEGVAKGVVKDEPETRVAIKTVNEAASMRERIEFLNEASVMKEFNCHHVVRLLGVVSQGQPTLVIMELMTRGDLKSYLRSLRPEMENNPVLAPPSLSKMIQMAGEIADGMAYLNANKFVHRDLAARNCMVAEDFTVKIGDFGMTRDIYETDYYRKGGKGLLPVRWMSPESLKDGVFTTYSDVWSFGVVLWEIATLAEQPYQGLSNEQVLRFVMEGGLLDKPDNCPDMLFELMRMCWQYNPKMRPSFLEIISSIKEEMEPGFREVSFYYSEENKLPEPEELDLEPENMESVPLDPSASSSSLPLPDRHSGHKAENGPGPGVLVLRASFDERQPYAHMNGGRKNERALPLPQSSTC
Chain of EGFR WT (P00533 25-1210): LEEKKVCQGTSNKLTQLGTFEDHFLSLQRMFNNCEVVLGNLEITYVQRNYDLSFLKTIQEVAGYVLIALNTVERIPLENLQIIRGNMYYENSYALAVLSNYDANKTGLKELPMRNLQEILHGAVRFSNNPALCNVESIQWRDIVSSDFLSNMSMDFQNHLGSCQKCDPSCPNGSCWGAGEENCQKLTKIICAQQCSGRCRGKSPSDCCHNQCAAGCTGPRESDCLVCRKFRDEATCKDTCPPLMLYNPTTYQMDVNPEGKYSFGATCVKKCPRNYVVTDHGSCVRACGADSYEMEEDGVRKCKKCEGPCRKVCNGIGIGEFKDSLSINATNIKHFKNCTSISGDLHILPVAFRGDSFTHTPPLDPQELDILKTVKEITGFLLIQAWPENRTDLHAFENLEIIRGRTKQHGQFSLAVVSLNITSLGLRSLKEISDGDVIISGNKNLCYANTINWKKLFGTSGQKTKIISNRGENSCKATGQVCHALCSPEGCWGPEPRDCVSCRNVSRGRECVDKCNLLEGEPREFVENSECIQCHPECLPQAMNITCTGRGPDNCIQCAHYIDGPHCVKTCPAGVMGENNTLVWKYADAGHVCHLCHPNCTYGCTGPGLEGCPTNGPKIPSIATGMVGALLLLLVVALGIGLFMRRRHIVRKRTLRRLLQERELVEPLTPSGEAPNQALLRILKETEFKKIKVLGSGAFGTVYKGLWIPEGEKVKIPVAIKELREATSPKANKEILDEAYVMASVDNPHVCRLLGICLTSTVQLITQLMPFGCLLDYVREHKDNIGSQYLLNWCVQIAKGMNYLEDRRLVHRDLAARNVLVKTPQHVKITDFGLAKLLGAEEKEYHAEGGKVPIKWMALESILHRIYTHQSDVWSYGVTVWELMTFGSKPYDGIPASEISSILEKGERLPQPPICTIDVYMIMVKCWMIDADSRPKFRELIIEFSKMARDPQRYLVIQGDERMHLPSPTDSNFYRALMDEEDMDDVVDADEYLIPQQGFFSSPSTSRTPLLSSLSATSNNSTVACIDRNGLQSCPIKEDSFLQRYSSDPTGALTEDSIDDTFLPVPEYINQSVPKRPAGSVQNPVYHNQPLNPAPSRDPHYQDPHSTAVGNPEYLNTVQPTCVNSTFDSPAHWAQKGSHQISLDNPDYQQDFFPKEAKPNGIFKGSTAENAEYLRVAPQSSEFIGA
Chain of EGFRΔ19del/T790M/C797S (P00533 with tags, fused parts or gaps DEL746-750/T790M/C797S, form open): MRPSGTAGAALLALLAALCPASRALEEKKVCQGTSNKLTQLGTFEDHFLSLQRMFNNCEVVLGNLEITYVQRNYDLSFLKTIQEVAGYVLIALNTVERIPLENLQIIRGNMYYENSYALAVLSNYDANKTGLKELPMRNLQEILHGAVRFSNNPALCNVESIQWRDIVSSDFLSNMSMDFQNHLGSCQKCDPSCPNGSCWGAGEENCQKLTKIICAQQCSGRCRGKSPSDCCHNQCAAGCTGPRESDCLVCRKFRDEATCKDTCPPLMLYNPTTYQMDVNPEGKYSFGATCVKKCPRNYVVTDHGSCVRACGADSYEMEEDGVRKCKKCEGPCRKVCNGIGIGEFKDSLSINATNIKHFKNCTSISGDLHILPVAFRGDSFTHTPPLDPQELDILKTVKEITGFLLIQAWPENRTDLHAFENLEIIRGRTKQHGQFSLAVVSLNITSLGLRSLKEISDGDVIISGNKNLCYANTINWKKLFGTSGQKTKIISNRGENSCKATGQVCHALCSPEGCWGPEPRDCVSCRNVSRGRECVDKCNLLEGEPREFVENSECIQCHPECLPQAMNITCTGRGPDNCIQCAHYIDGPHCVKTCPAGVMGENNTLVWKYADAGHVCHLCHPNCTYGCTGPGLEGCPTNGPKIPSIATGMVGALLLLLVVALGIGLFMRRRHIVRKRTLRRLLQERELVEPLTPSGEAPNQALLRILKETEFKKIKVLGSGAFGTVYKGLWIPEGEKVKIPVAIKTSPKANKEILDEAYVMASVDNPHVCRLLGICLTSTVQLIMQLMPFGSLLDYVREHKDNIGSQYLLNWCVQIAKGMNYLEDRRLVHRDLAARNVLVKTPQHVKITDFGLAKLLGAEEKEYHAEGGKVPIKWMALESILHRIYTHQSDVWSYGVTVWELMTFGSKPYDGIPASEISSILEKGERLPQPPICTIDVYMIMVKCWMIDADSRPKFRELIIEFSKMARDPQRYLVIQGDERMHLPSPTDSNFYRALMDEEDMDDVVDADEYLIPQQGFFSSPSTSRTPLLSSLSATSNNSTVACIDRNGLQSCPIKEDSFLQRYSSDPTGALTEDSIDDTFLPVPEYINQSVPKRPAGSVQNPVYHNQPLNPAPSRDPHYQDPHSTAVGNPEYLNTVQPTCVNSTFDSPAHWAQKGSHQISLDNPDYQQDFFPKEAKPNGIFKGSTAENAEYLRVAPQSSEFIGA
Chain of Ba/F3 cells with EGFR Δ19del/T790M/C797S mutation gene stably overexpressed (P00533 with tags, fused parts or gaps DEL746-750/T790M/C797S, form open): as above

Structure (SMILES) | GI50 [1] [nM] | GI50 [2] [nM] | IC50 (A431) [nM] | IC50 (EGFRΔ19del/T790M/C797S) [nM] | IC50 (IGF1R) [nM] | IC50 (EGFR WT) [nM]
CCc1cc(Nc2ncc(Br)c(Nc3ccc(-c4cnn(C(C)C)n4)cc3P(C)(C)=O)n2)c(OC)cc1N1CCC(N2CCN(C)CC2)CC1 [Compound 85, (2-((5-Bromo-2-((5-ethyl-2-methoxy-4-(4-(4-methylpiperazin-1-yl)piperidin-1-yl)phenyl)amino)pyrimidin-4-yl)amino)-5-(2-isopropyl-2H-l,2,3-triazol-4-yl)phenyl)dimethylphosphine oxide] | 1120 | 28.6 | 5770 | – | – | –
COc1cnn(-c2ccc(Nc3nc(Nc4cc(-c5cnn(C)c5)c(N5CCN(C(C)=O)CC5)cc4OC)ncc3Br)c(P(C)(C)=O)c2)c1 [Compound K-082] | 2960 | 11.4 | 1260 | – | – | –
CCn1cc(-c2cc(Nc3ncc(Br)c(Nc4ccc(-c5cc(C)n(C)n5)cc4P(C)(C)=O)n3)c(OC)cc2N2CCC(N3CCN(C)CC3)CC2)cn1 [Compound K-005, (2-((5-Bromo-2-((5-(1-ethyl-1H-pyrazol-4-yl)-2-methoxy-4-(4-(4-methylpiperazin-1-yl)piperidin-1-yl)phenyl)amino)pyrimidin-4-yl)amino)-5-(1,5-dimethyl-1H-pyrazol-3-yl)phenyl)dimethylphosphine oxide] | 482 | 27.9 | 415 | – | – | –
CCc1cc(Nc2ncc(Cl)c(Nc3ccc(-c4cnc(OC)nc4)cc3P(C)(C)=O)n2)c(OC)cc1N1CCC(N2CCN(C)CC2)CC1 [Compound 25, (2-((5-Chloro-2-((5-ethyl-2-methoxy-4-(4-(4-methylpiperazin-1-yl)piperidin-1-yl)phenyl)amino)pyrimidin-4-yl)amino)-5-(2-methoxypyrimidin-5-yl)phenyl)dimethylphosphine oxide] | – | 22.4 | 1700 | 0.4 | 169 | 37.6
CCc1cc(Nc2ncc(Br)c(Nc3ccc(-c4ncc(C(C)C)cn4)cc3P(C)(C)=O)n2)c(OC)cc1N1CCC(N2CCN(C)CC2)CC1 [Compound K-056, (2-((5-Bromo-2-((5-ethyl-2-methoxy-4-(4-(4-methylpiperazin-1-yl)piperidin-1-yl)phenyl)amino)pyrimidin-4-yl)amino)-5-(5-isopropylpyrimidin-2-yl)phenyl)dimethylphosphine oxide] | 524 | – | – | – | – | –
CCc1cc(Nc2ncc(Br)c(Nc3ccc(-c4ccc(F)cc4F)cc3P(C)(C)=O)n2)c(OC)cc1N1CCC(N2CCN(C)CC2)CC1 [Compound 6, (4-((5-Bromo-2-((5-ethyl-2-methoxy-4-(4-(4-methylpiperazin-1-yl)piperidin-1-yl)phenyl)amino)pyrimidin-4-yl)amino)-2′,4′-difluoro-[1,1′-biphenyl]-3-yl)dimethylphosphine oxide] | – | 21.4 | > 10000 | 0.9 | 147 | 16.7
CCc1cc(Nc2ncc(Br)c(Nc3ccc(-c4cnc(C)c(C)n4)cc3P(C)(C)=O)n2)c(OC)cc1N1CCC(N2CCN(C)CC2)CC1 [Compound 81, (2-((5-Bromo-2-((5-ethyl-2-methoxy-4-(4-(4-methylpiperazin-1-yl)piperidin-1-yl)phenyl)amino)pyrimidin-4-yl)amino)-5-(5,6-dimethylpyrazin-2-yl)phenyl)dimethylphosphine oxide] | – | 16.8 | 875 | 0.6 | 142 | 12.6
CCc1cc(Nc2ncc(Br)c(Nc3ccc(-c4ncc(C)cn4)cc3P(C)(C)=O)n2)c(OC)cc1N1CCC(N2CCN(C)CC2)CC1 [Compound 21, (2-((5-Bromo-2-((5-ethyl-2-methoxy-4-(4-(4-methylpiperazin-1-yl)piperidin-1-yl)phenyl)amino)pyrimidin-4-yl)amino)-5-(5-methylpyrimidin-2-yl)phenyl)dimethylphosphine oxide] | – | 8.8 | 1390 | 0.7 | 224 | 25.6

Second part, the compound after the results:

GI50 [1] [nM] | GI50 [2] [nM] | IC50 (A431) [nM] | IC50 (EGFRΔ19del/T790M/C797S) [nM] | IC50 (IGF1R) [nM] | IC50 (EGFR WT) [nM] | Structure (SMILES)
52.1 | 1 | 379 | – | – | – | COc1cnn(-c2ccc(Nc3nc(Nc4cc(-c5cnn(C)c5)c(N5CCN(C6CCCC6)CC5)cc4OC)ncc3Br)c(P(C)(C)=O)c2)c1 [Compound K-081]
352 | – | – | – | – | – | CCOc1ncc(-c2ccc(Nc3nc(Nc4cc(CC)c(N5CCC(N6CCN(C)CC6)CC5)cc4OC)ncc3Br)c(P(C)(C)=O)c2)cn1 [Compound K-059, (2-((5-Bromo-2-((5-ethyl-2-methoxy-4-(4-(4-methylpiperazin-1-yl)piperidin-1-yl)phenyl)amino)pyrimidin-4-yl)amino)-5-(2-ethoxypyrimidin-5-yl)phenyl)dimethylphosphine oxide]
238 | – | – | – | – | – | CCc1cc(Nc2ncc(Br)c(Nc3ccc(-c4ccc(C)nc4)cc3P(C)(C)=O)n2)c(OC)cc1N1CCC(N2CCN(C)CC2)CC1 [Compound K-070, (2-((5-Bromo-2-((5-ethyl-2-methoxy-4-(4-(4-methylpiperazin-1-yl)piperidin-1-yl)phenyl)amino)pyrimidin-4-yl)amino)-5-(6-methylpyridin-3-yl)phenyl)dimethylphosphine oxide]
150 | 16.8 | – | 1.4 | 394 | 1130 | COc1cnn(-c2ccc(Nc3nc(Nc4cc(C)c(N5CCOCC5)c(OC)c4)ncc3Br)c(P(C)(C)=O)c2)c1 [Compound K-031, (2-((5-Bromo-2-((3-methoxy-5-methyl-4-morpholinophenyl)amino)pyrimidin-4-yl)amino)-5-(4-methoxy-1H-pyrazol-1-yl)phenyl)dimethylphosphine oxide]
335 | 15.6 | 371 | – | – | – | CCc1cc(Nc2ncc(Br)c(Nc3ccc(-c4cnn(C)c4)cc3P(C)(C)=O)n2)c(OC)cc1N1CCC(N2CCCC2)CC1 [Compound K-001]
417 | – | – | – | – | – | CCc1cc(Nc2ncc(Br)c(Nc3ccc(-c4cnc(C)c(C)n4)cc3P(C)(C)=O)n2)c(OC)cc1N1CCC(N2CCN(C)CC2)CC1 [Compound K-067, (2-((5-Bromo-2-((5-ethyl-2-methoxy-4-(4-(4-methylpiperazin-1-/l)piperidin-1-yl)phenyl)amino)pyrimidin-4-yl)amino)-5-(5,6-dimethylpyrazin-2-yl)phenyl)dimethylphosphine oxide]
206 | – | – | – | – | – | CCc1cc(Nc2ncc(Br)c(Nc3ccc(-c4cnc(N(C)C)nc4)cc3P(C)(C)=O)n2)c(OC)cc1N1CCC(N2CCN(C)CC2)CC1 [Compound K-057, (2-((5-Bromo-2-((5-ethyl-2-methoxy-4-(4-(4-methylpiperazin-1-yl)piperidin-1-yl)phenyl)amino)pyrimidin-4-yl)amino)-5-(2-(dimethylamino)pyrimidin-5-yl)phenyl)dimethylphosphine oxide]
152 | – | – | – | – | – | CCc1cc(Nc2ncc(Br)c(Nc3ccc(-c4cnc(C5CC5)cn4)cc3P(C)(C)=O)n2)c(OC)cc1N1CCC(N2CCN(C)CC2)CC1 [Compound K-064, (2-((5-Bromo-2-((5-ethyl-2-methoxy-4-(4-(4-methylpiperazin-1-yl)piperidin-1-yl)phenyl)amino)pyrimidin-4-yl)amino)-5-(5-cyclopropylpyrazin-2-yl)phenyl)dimethylphosphine oxide]
15.8 | 1.4 | 125 | – | – | – | COc1cc(N2CCC(N3CCCCC3)CC2)c(-c2cnn(C)c2)cc1Nc1ncc(Br)c(Nc2ccc(-c3ccccc3)c(C)c2P(C)(C)=O)n1 [Compound K-051]
293 | – | – | – | – | – | CCc1cc(Nc2ncc(Cl)c(Nc3ccc(-c4nn(C)cc4C#N)cc3P(C)(C)=O)n2)c(OC)cc1N1CCC(N2CCN(C)CC2)CC1 [Compound K-060, 3-(4-((5-Chloro-2-((5-ethyl-2-methoxy-4-(4-(4-methylpiperazin-1-yl)piperidin-1-yl)phenyl)amino)pyrimidin-4-yl)amino)-3-(dimethylphosphineoxide)phenyl)-1-methyl-1H-pyrazol-4-carbonitrile]
132 | – | – | – | – | – | CCc1cc(Nc2ncc(Br)c(Nc3ccc(-c4cnc(C)cn4)cc3P(C)(C)=O)n2)c(OC)cc1N1CCC(N2CCN(C)CC2)CC1 [Compound K-065, (2-((5-Bromo-2-((5-ethyl-2-methoxy-4-(4-(4-methylpiperazin-1-yl)piperidin-1-yl)phenyl)amino)pyrimidin-4-yl)amino)-5-(5-methylpyrazin-2-yl)phenyl)dimethylphosphine oxide]
